In paper PMC8196580, “Identification of Kaurane-Type Diterpenes as Inhibitors of Leishmania Pteridine Reductase I” (Molecules, 2021):
Like-named read-outs stand apart in the source and are kept apart here.

Experiments:
[1] = tested on: L. major; experiment: ChEMBL dataset of pIC50 values against L. major used for the RF model (Table S1); assay type: cell-based, Leishmania major; note: call rule not given here
From the text: From the ChEMBL database (https://www.ebi.ac.uk/chembl/, accessed on 10 January 2021), we selected a diverse set of 1085 structures that were initially classified according to their predicted activity against L. major.
Excluding these structures minimized the differences in activity values resulting from errors and differences in experimental protocols. […] Standardizer software [JChem, version 16.11.28 (2016), calculation module developed by ChemAxon, https://www.chemaxon.com/, accessed on 20 January 2021] was used to canonize all simplified molecular-input line-entry system (SMILES) codes. After duplicate structures were removed, those with higher pIC50 values were eliminated, facilitating the generation of more restrictive models.

[2] = tested on: L. major; parameters: method as in ChEMBL; details: ref ChEMBL, cited from earlier work
[3] = Active/Inactive class assigned to ChemBL structures for Random forest model construction (Table S1)
[4] = ChemBL structures with pIC50 values used for Random forest model construction (Table S1)
[5] = Active/Inactive class assigned to the ChEMBL pIC50 value for Random forest model construction, ref ChEMBL
[6] = ChemBL structures with pIC50 values used for Random forest model construction, L. major

| SMILES | Outcome [1, 3] | pIC50 Value [2, 4] | Outcome [1, 5] | pIC50 Value [2, 6] |
| --- | --- | --- | --- | --- |
| Cc1ccc(N2C(=O)C(c3ccccc3)(c3ccccc3)C2c2cn(C)c3ccccc23)cc1 (stereo not drawn) [CHEMBL2071561] | Active | 5.88 | – | – |
| COc1ccccc1C(=O)N/N=C/c1ccc(Br)c(F)c1 [CHEMBL2382032] | – | – | Inactive | 4.11 |
| C[C@]12CC[C@H](O)C[C@@H]1CC[C@@H]1[C@@H]2CC[C@@]2(C)[C@H]1CC[C@@H]2[C@@](C)(O)c1ccncc1Cl [CHEMBL1214242] | – | – | Active | 5.10 |
| COc1ccc(-c2ccc(C)cc2)c2c1C(C)=N[C@H](C)C2 [CHEMBL1278083] | – | – | Inactive | 4.08 |
| CC1=N[C@H](C)Cc2c(-c3ccccc3)ccc(O)c21 [CHEMBL1275788] | – | – | Inactive | 4.00 |
| COc1ccccc1C(=O)N/N=C/c1cc(O)cc(O)c1 [CHEMBL2382035] | – | – | Inactive | 4.55 |
| C/C(=N/NC(N)=S)c1ccc(OCc2cn(-c3ccc(C(=O)O)cc3)nn2)cc1 [CHEMBL4169531] | – | – | Active | 5.13 |
| Cc1ccc2cc(/C=C/C(=O)c3sccc3C)c(Cl)nc2c1 [CHEMBL1940851] | Active | 5.55 | – | – |
| COc1cc(/C=N/NC(N)=S)ccc1OCc1cn(CC(=O)c2ccc(C)cc2)nn1 [CHEMBL4163267] | Active | 5.30 | – | – |
| COc1cc(OC)c2c(C)[n+](-c3ccc(C)cc3)c(C)cc2c1 [CHEMBL520612] | Active | 5.58 | – | – |
| Cl.N=C(c1ccc(N2CCN(c3nnc(-c4ccc([N+](=O)[O-])o4)s3)CC2)cc1)N1CCOCC1 [CHEMBL1783209] | – | – | Inactive | 4.03 |
| COc1ccccc1-c1nnc(-c2ccc(C(=O)N/N=C/c3ccccc3[N+](=O)[O-])cc2)o1 [CHEMBL4104790] | – | – | Inactive | 4.19 |
| CCOc1ccc(N2C(=O)C(c3ccccc3)(c3ccccc3)C2c2cn(C)c3ccccc23)cc1 (stereo not drawn) [CHEMBL2071562] | Active | 5.93 | – | – |
| COc1c(C)cc(O)c2c(OC)cccc12 [CHEMBL2071224] | – | – | Inactive | 4.00 |
| COc1ccccc1C(=O)N/N=C/c1ccncc1 [CHEMBL2382030] | – | – | Inactive | 4.12 |
| COc1cccc2cc(C=O)cc(O)c12 [CHEMBL2071232] | – | – | Inactive | 4.00 |
| COc1ccc(O)c(/C=N/NC(=O)c2ccccc2OC)c1 [CHEMBL2382038] | – | – | Inactive | 4.00 |
| Cc1cccc2cc(/C=C/C(=O)c3ccc(Br)s3)c(Cl)nc12 [CHEMBL1940870] | Active | 5.70 | – | – |
| COC(=O)C1=C(C)NC(C)=C(C(=O)OC(C)(C)CN(C)CCC(c2ccccc2)c2ccccc2)C1c1cccc([N+](=O)[O-])c1 (stereo not drawn) [CHEMBL250270] | – | – | Inactive | 4.94 |
| CCCN1CN(CC(=O)OCC)CSC1=S [CHEMBL4279218] | – | – | Inactive | 3.97 |

| SMILES | Outcome [1, 3] | pIC50 Value [2, 4] | Outcome [1, 5] | pIC50 Value [2, 6] |
| --- | --- | --- | --- | --- |
| Clc1ccc2c(c1)Nc1ccccc1O2 [CHEMBL1801896] | – | – | Inactive | 4.16 |
| COc1ccc(-c2nc3ccccn3c2-c2cccc([N+](=O)[O-])c2)cc1 [CHEMBL2151882] | – | – | Inactive | 4.85 |
| CCCCCCCCCCCCCCCCOP(=O)([O-])OCC[N+](C)(C)C [CHEMBL125] | – | – | Inactive | 4.44 |
| COc1ccc(/C=C/C(=O)c2ccccc2)c(OC)c1 [CHEMBL144626] | Active | 5.40 | – | – |
| C[C@]12CC[C@H](O)C[C@@H]1CC[C@@H]1[C@@H]2CC[C@@]2(C)[C@H]1CC[C@@H]2[C@@](C)(O)c1ccccn1 [CHEMBL1214311] | – | – | Inactive | 4.00 |
| COc1ccc(-c2ccc3cc(C)nc(C)c3c2O)c2cc(C)cc(OC)c12 [CHEMBL224952] | – | – | Inactive | 4.00 |
| C[C@H]1COC2=C1C(=O)C(=O)c1c2ccc2c1C(=O)CCC2(C)C [CHEMBL519694] | – | – | Inactive | 4.59 |
| CC(C)(C)c1ccc(CN2CCN(c3ccnc4cc(Cl)ccc34)CC2)cc1 [CHEMBL1256730] | – | – | Inactive | 4.21 |
| COc1ccc(/N=C/c2cn(C)c3ccccc23)cc1 [CHEMBL2071557] | Active | 5.46 | – | – |
| COc1cc(/C=N/NC(N)=S)ccc1OCc1cn(-c2ccc(C(=O)O)cc2)nn1 [CHEMBL4173978] | – | – | Active | 5.24 |
| C[C@@H](OP(N)(=O)N(CCCl)CCCl)c1ccc([N+](=O)[O-])cc1 (stereo partly drawn) [CHEMBL2158071] | – | – | Inactive | 4.52 |
| O=[N+]([O-])c1ccc(-c2nnc(NCc3cn(Cc4cccc(Cl)c4)nn3)s2)o1 [CHEMBL1951526] | – | – | Inactive | 3.97 |
| COc1ccc(-c2ccc(OC)c3ccccc23)c2c1C=NC(C)(C)C2 [CHEMBL1277742] | – | – | Inactive | 4.43 |
| COc1ccccc1-c1nnc(-c2ccc(C(=O)N/N=C/c3cccc(F)c3)cc2)o1 [CHEMBL4072092] | – | – | Active | 5.20 |
| COc1cc(C2NC(=O)NC(C)=C2C(C)=O)ccc1O (stereo not drawn) [CHEMBL1342564] | Active | 5.59 | – | – |
| Cc1cc(C(=O)/C=C/c2cc3cccc(C)c3nc2Cl)c(C)s1 [CHEMBL1940865] | Active | 5.67 | – | – |
| O=C(c1cccs1)N1CCN(c2nnc(-c3ccc([N+](=O)[O-])o3)s2)CC1 [CHEMBL458529] | – | – | Inactive | 4.72 |
| COc1ccc([C@@H]2COc3c(ccc4occc34)C2)c(OC)c1O [CHEMBL498724] | – | – | Inactive | 4.76 |
| CC(=O)C1=C(C)N(C)C(=O)NC1c1ccccc1 (stereo not drawn) [CHEMBL3785882] | Active | 5.59 | – | – |
| CCCC/C=C/C=C/c1nc2cc(OC)ccc2n2cccc12 [CHEMBL3260215] | Active | 5.60 | – | – |

| SMILES | Outcome [1, 3] | pIC50 Value [2, 4] | Outcome [1, 5] | pIC50 Value [2, 6] |
| --- | --- | --- | --- | --- |
| C/C=C(\C)C(=O)N[C@H]1CC[C@]2(C)[C@H]3CC[C@]4(C)[C@@H]([C@H](C)NC)CC[C@H]4[C@@H]3CC[C@H]2[C@H]1OC(C)=O [CHEMBL504924] | Active | 5.82 | – | – |
| Clc1ccccc1-c1nc2ccccc2[nH]1 [CHEMBL473162] | Active | 5.47 | – | – |
| Clc1cccc(-c2nc3ccccn3c2-c2ccccc2)c1 [CHEMBL2151878] | Active | 5.36 | – | – |
| CCCCCCCc1ccc(Nc2c3ccccc3nc3ccccc23)cc1 [CHEMBL316058] | Active | 6.10 | – | – |
| COc1ccccc1-c1nnc(-c2ccc(C(=O)N/N=C/c3cccc(C)c3)cc2)o1 [CHEMBL4097073] | – | – | Inactive | 4.40 |
| COc1cc(OC)c2c(C)[n+](-c3ccc(C#N)cc3)c(C)cc2c1.O=C([O-])C(F)(F)F [CHEMBL481906] | – | – | Inactive | 4.00 |
| NP(=O)(OCc1ccc([N+](=O)[O-])cc1)N(CCCl)CCCl (stereo not drawn) [CHEMBL144896] | – | – | Inactive | 4.52 |
| COc1ccc(-c2nc3ccccc3[nH]2)cc1 [CHEMBL379179] | Active | 5.44 | – | – |
| C=CCOc1ccc(C(=O)/C=C/c2ccc(OC)cc2OC)cc1 [CHEMBL253672] | Active | 5.40 | – | – |
| O=[N+]([O-])c1ccc(-c2nc3ccccc3[nH]2)cc1 [CHEMBL473361] | Active | 5.53 | – | – |
| Cn1c([N+](=O)[O-])cnc1-c1nnc(N2CCN(C(=O)c3ccccc3)CC2)s1 [CHEMBL482463] | – | – | Inactive | 4.98 |
| O=C(/C=C/c1ccc(-n2ccnc2)cc1)c1ccc(Cl)c(Cl)c1 [CHEMBL570738] | Active | 5.54 | – | – |
| CNC(=N)c1ccc(N2CCN(c3nnc(-c4ccc([N+](=O)[O-])o4)s3)CC2)cc1.Cl [CHEMBL1783201] | – | – | Inactive | 4.64 |
| Cc1cccc2cc(/C=C/C(=O)c3ccc(Cl)s3)c(Cl)nc12 [CHEMBL1940867] | Active | 5.73 | – | – |
| O=C(/C=C/C1=Cc2cc(Cl)ccc2OC1)c1ccccc1F [CHEMBL1097964] | Active | 5.65 | – | – |
| C[C@@H]1C[C@@]2(O[C@H]3C[C@@]4(C)[C@@H]5C[C@H](O)[C@H]6C(C)(C)[C@@H](O[C@@H]7OC[C@@H](O)[C@@H](O)[C@H]7O)CC[C@@]67C[C@@]57CC[C@]4(C)[C@@H]13)O[C@H](O)[C@]1(C)C[C@H]21 [CHEMBL501026] | – | – | Inactive | 4.19 |
| COc1c(C)cc2cccc(OC)c2c1O [CHEMBL2071227] | – | – | Inactive | 4.35 |
| CN1CCN(c2nnc(-c3ccc([N+](=O)[O-])s3)s2)CC1 [CHEMBL371217] | – | – | Inactive | 3.99 |
| COc1cc(C)cc2c1C(=O)C=C(C1=C(C)C(=O)c3ccc(O)c(OC)c3C1=O)C2=O [CHEMBL2071225] | Active | 10.28 | – | – |
| CN(C)Cc1c(O)ccc2c(=O)c(-c3cnn(-c4ccccc4)c3)coc12 [CHEMBL1256931] | – | – | Inactive | 4.13 |
